Reference: article PMC10988713 (FEBS Open Bio, 2024)

Legend:
[1] = molecular target: T1, RnMFE1 (Rattus norvegicus, UniProt P07896); test: stopped-flow tryptophan fluorescence, koff/kon; format: binding
T1 construct: gene Ehhadh
Excerpt: (§1) stopped-flow tryptophan fluorescence, koff/kon on RnMFE1

[2] = molecular target: T2, RnMFE1 (Rattus norvegicus, UniProt P07896, E123A); test: stopped-flow tryptophan fluorescence, koff/kon; format: binding
T2 construct: gene Ehhadh
Excerpt: as §1

[3] = molecular target: T3, HsHAD (Homo sapiens, UniProt Q16836); test: stopped-flow tryptophan fluorescence, koff/kon; format: binding
T3 construct: gene HADH; N-terminal His6 tag in pET28a, E. coli BL21(DE3) pLysS, dimer of 35 kDa subunits
T3 sequence (Q16836 13-314): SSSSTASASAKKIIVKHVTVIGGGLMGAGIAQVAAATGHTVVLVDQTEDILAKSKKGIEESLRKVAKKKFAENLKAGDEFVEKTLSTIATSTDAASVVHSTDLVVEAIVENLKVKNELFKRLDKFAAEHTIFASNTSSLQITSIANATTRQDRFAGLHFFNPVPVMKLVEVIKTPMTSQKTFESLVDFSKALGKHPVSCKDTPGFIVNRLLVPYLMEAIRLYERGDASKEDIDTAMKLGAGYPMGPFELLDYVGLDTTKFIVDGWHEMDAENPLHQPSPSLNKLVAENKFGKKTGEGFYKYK
Excerpt: stopped-flow tryptophan fluorescence, koff/kon on HsHAD

[4] = molecular target: T4, BCDE (Rattus norvegicus, UniProt P07896); test: stopped-flow tryptophan fluorescence, koff/kon; format: binding
T4 construct: gene Ehhadh; truncated RnMFE1 from Ala260 (ASGQ) to the C-terminus, without domain A (ECH part); N-terminal His6 tag, E. coli BL21(DE3) pLysS
Excerpt: stopped-flow tryptophan fluorescence, koff/kon on BCDE

[5] = molecular target: T3, HsHAD; test: stopped-flow NADH fluorescence, koff/kon; format: binding
Excerpt: stopped-flow NADH fluorescence, koff/kon on HsHAD

[6] = molecular target: T4, BCDE; test: stopped-flow NADH fluorescence, koff/kon; format: binding
Excerpt: stopped-flow NADH fluorescence, koff/kon on BCDE

[7] = molecular target: T1, RnMFE1; test: stopped-flow NADH fluorescence, koff/kon; format: binding
Excerpt: (§2) stopped-flow NADH fluorescence, koff/kon on RnMFE1

[8] = molecular target: T2, RnMFE1; test: stopped-flow NADH fluorescence, koff/kon; format: binding
Excerpt: as §2

[9] = molecular target: T1, RnMFE1; test: stopped-flow NADH formation, kobs vs substrate; format: biochemical; conditions: 1 mM NAD+, pH 9.0, 50 mM Tris, 50 mM KCl, room temperature; coupled ECH and HAD reactions of the same enzyme
Excerpt: stopped-flow NADH formation, kobs vs substrate on RnMFE1

T1 sequence (P07896 whole entry): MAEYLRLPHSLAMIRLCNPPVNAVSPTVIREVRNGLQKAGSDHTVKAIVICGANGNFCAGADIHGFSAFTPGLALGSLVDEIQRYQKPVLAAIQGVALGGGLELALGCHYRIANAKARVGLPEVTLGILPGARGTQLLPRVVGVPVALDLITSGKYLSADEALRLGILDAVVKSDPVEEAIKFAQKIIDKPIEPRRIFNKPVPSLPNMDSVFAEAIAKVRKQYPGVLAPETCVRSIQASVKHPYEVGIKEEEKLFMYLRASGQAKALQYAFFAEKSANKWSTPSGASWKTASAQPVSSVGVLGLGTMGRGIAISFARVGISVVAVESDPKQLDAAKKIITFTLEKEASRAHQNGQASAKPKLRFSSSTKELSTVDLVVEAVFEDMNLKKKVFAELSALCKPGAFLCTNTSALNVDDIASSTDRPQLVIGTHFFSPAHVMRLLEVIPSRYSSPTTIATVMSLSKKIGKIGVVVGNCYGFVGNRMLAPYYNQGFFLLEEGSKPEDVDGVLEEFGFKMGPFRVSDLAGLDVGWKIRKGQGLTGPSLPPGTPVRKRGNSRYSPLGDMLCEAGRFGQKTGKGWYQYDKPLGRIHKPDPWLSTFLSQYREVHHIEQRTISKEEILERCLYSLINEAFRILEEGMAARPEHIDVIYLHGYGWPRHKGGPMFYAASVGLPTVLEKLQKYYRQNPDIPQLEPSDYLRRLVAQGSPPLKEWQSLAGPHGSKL
T2 sequence (P07896 whole entry E123A): as the sequence (P07896 whole entry) above, with E123A counted along it
T4 sequence (P07896 260-722): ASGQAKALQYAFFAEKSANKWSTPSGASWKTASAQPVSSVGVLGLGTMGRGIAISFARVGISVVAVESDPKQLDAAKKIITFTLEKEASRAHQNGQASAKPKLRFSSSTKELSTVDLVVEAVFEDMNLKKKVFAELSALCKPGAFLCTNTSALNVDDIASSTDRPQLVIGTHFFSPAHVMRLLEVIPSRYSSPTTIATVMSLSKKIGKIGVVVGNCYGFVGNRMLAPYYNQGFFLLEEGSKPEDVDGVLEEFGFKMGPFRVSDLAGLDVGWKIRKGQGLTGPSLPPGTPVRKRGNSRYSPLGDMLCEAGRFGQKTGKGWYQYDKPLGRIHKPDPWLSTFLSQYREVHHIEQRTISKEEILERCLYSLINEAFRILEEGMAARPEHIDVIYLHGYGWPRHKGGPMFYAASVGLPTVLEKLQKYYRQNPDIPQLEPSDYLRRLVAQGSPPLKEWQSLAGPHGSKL

Structure (SMILES): NC(=O)c1ccc[n+]([C@@H]2O[C@H](COP(=O)(O)OP(=O)(O)OC[C@H]3O[C@@H](n4cnc5c(N)ncnc54)[C@H](O)[C@@H]3O)[C@@H](O)[C@H]2O)c1 [NAD^+]
- Kd [1]: 7.6 µM
- Kd [2]: 8 µM
- Kd [3]: 6 µM
- Kd [4]: 7.5 µM

Structure (SMILES): NC(=O)C1=CN([C@@H]2O[C@H](COP(=O)(O)OP(=O)(O)OC[C@H]3O[C@@H](n4cnc5c(N)ncnc54)[C@H](O)[C@@H]3O)[C@@H](O)[C@H]2O)C=CC1 [NADH]
- Kd [5]: 7 µM
- Kd [6]: 5.7 µM
- Kd [7]: 5 µM
- Kd [8]: 7.5 µM

Structure (SMILES): C/C=C/C(=O)SCCNC(=O)CCNC(=O)[C@H](O)C(C)(C)COP(=O)(O)OP(=O)(O)OC[C@H]1O[C@@H](n2cnc3c(N)ncnc32)[C@H](O)[C@@H]1OP(=O)(O)O [2E‐butenoyl‐CoA]
- Kd [9]: 1.9 ± 0.1 µM
